biological target: T1, recombinant rat mGluR5 (Rattus norvegicus, UniProt P31424); assay: Functional calcium flux assay (FLIPR), antagonism of glutamate-evoked [Ca2+]i increase; type: cell-based; conditions: HEK293 cells stably expressing recombinant rat mGluR5; Fluo-8; 15 min incubation of test compound, then submaximal glutamate
T1 construct: expressed in transfected cells
Protocol: Functional Calcium Flux Assay Methodology
For functional assays, HEK293 cells stably expressing recombinant rat mGluR5 were seeded in 384-well plates and dye loaded using Fluo-8. Cells were then washed to remove the un-incorporated dye. Antagonist evaluation was performed following a 15 min incubation of the test compound followed by the addition of submaximal concentration of glutamate. Intracellular calcium ([Ca^2+]i) measurements were performed using a fluorometric imaging plate reader (FLIPR, Molecular Devices). The glutamate-evoked increase in [Ca^2+]i in the presence of the test compounds was compared to the response to glutamate alone (the positive control). Antagonist inhibition curves were fitted with a 4-parameter logistic equation giving IC50 values, and Hill coefficients using an iterative nonlinear curve fitting algorithm.
The tables below provide IC50 data in this assay. In the activity column, A=IC50 >1,000 and ≤5,000 nM; B=IC50>500 and ≤1,000 nM and C=IC50≤500 nM.

T1 sequence (P31424 21-1203): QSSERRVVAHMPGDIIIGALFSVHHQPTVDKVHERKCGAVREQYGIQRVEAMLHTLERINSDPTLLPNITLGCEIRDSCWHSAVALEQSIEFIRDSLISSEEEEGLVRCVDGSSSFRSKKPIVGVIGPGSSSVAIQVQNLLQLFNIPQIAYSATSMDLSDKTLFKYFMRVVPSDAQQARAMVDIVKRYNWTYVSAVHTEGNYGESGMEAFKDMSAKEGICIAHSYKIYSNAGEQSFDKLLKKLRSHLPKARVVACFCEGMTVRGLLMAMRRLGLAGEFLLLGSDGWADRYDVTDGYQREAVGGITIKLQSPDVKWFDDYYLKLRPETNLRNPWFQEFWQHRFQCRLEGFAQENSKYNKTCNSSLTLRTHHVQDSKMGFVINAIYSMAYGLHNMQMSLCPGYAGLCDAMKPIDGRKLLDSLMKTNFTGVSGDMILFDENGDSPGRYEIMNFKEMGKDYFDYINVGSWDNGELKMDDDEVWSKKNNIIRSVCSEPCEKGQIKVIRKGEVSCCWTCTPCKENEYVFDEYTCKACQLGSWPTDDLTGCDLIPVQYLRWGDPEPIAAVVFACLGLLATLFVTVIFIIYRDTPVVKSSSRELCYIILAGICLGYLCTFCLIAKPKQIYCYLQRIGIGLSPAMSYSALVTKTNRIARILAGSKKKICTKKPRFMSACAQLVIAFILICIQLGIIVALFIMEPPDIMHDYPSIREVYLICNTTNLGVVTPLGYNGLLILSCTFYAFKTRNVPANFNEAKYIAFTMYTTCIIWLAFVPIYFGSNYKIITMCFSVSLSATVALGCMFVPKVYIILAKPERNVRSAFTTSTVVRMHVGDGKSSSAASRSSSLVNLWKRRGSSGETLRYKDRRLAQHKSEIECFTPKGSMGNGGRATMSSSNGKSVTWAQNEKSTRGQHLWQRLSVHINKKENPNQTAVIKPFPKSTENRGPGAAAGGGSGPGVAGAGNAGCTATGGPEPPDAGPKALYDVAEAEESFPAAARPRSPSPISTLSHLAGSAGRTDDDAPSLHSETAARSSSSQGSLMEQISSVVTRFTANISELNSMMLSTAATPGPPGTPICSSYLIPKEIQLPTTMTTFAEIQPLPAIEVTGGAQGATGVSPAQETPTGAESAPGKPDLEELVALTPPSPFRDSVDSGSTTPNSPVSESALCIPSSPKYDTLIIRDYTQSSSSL

N#Cc1cc(I)cc(-n2cc(C#Cc3ccccn3)c3ccccc32)c1 [Example Compound 1, 3-iodo-5-(3-(pyridin-2-ylethynyl)-1H-indol-1-yl)benzonitrile] and N#Cc1cc(F)cc(-n2cc(C#Cc3ccccn3)c3ccccc32)c1 [Example Compound 2, 3-fluoro-5-(3-(pyridin-2-ylethynyl)-1H-indol-1-yl)benzonitrile] cannot be ordered by IC50: at most 500 nM for the first, at most 500 nM for the second.

Fc1ccc(-n2cc(C#Cc3ccccn3)c3ccccc32)cc1 [Example Compound 3, 1-(4-fluorophenyl)-3-(pyridin-2-ylethynyl)-1H-indole] and Fc1ccc(-n2cc(C#Cc3ncccn3)c3ccccc32)cc1 [Example Compound 4, 1-(4-fluorophenyl)-3-(pyrimidin-2-ylethynyl)-1H-indole] cannot be ordered by IC50: at most 500 nM for the first, at most 500 nM for the second.

N#Cc1cc(F)cc(-n2cc(F)c(C#Cc3ccccn3)c2)c1 [Example Compound 5, 3-fluoro-5-(3-fluoro-4-(pyridin-2-ylethynyl)-1H-pyrrol-1-yl)benzonitrile] and N#Cc1cc(F)cc(-n2ccc(C#Cc3ccccn3)c2)c1 [Example Compound 6, 3-fluoro-5-(3-(pyridin-2-ylethynyl)-1H-pyrrol-1-yl)benzonitrile] cannot be ordered by IC50: at most 500 nM for the first, at most 500 nM for the second.

Compared with Fc1ccc(-n2ccc(C#Cc3ccccc3)c2)cc1 [Example Compound 7, 1-(4-fluorophenyl)-3-(phenylethynyl)-1H-pyrrole], Cc1cc(C#Cc2ccncc2)c(C)n1-c1ccc(OC(F)(F)F)cc1 [Example Compound 10, 4-((2,5-dimethyl-1-(4-(trifluoromethoxy)phenyl)-1H-pyrrol-3-yl)ethynyl)pyridine] is higher in IC50: at most 500 nM for the first, 1000 to 5000 nM for the second.

Cc1cc(C#Cc2ccccn2)c(C)n1-c1ccc(OC(F)(F)F)cc1 [Example Compound 8, 2-((2,5-dimethyl-1-(4-(trifluoromethoxy)phenyl)-1H-pyrrol-3-yl)ethynyl)pyridine] and Cc1cc(C#Cc2ncccn2)c(C)n1-c1ccc(OC(F)(F)F)cc1 [Example Compound 9, 2-((2,5-dimethyl-1-(4-(trifluoromethoxy)phenyl)-1H-pyrrol-3-yl)ethynyl)pyrimidine] cannot be ordered by IC50: at most 500 nM for the first, at most 500 nM for the second.

Source: patent US10669255B2, “Pyrrole derivatives” (HUA MEDICINE (SHANGHAI) LTD., priority 2016, dated 2020)
